Structures can show the parent of a compound that is named as a salt.
Target: T1, HCV polymerase (Hepatitis C virus genotype 1b, UniProt P26663)
T1 construct: a region encoding NS5B (591 amino acids; J Virol 1991 Mar, 65(3), 1105-13) was amplified by PCR; 6 His (N); made in house; host or cells: Escherichia coli
Assay: biochemical
Details: read-out: HCV polymerase inhibitory activity IC50

T1 sequence (P26663 2420-3010): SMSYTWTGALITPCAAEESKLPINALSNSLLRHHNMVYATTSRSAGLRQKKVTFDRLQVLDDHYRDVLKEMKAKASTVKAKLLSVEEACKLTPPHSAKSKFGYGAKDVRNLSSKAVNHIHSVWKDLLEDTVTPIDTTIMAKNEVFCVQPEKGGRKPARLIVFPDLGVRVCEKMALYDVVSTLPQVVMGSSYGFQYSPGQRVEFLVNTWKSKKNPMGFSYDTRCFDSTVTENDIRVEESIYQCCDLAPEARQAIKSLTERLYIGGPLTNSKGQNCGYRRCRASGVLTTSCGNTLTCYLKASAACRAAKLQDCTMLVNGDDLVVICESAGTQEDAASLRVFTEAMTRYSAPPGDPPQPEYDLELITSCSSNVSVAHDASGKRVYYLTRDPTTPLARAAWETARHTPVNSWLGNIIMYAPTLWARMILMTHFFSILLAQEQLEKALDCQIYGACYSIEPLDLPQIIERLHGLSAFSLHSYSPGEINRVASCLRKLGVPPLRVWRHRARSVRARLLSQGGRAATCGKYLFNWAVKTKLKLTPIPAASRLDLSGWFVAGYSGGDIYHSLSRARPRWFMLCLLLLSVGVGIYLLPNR

O=C(O)c1ccc2c(c1)nc(-c1ccc(OCc3cc(C(=O)N4CC[C@H](O)[C@H](O)C4)ccc3-c3ccc(Cl)cc3)cc1)n2C1CCCCC1 (stereo in doubt) [Example 348, 2-{4-[2-(4-chlorophenyl)-5-(3,4-dihydroxypiperidin-1-ylcarbonyl)benzyloxy]phenyl}-1-cyclohexylbenzimidazole-5-carboxylic acid hydrochloride]
IC50: 13 nM

O=C(O)c1ccc2c(c1)nc(-c1ccc(/C=C/c3ccccc3)cc1)n2C1CCCCC1 [Example 11, 1-cyclohexyl-2-{4-[(E)-2-phenylvinyl]phenyl}-benzimidazole-5-carboxylic acid]
IC50: 530 nM

O=C(O)c1ccc2c(c1)nc(-c1ccc(OCc3ccccc3)cc1)n2C1CCCC1 [Example 12, 2-(4-benzyloxyphenyl)-1-cyclopentylbenzimidazole-5-carboxylic acid]
IC50: 600 nM

CC(C)(C)c1ccc(COc2ccc(-c3nc4cc(C(=O)O)ccc4n3C3CCCC3)cc2)cc1 [Example 43, 2-[4-(4-tert-butylbenzyloxy)phenyl]-1-cyclopentylbenzimidazole-5-carboxylic acid]
IC50: 580 nM

O=C(O)c1ccc(COc2ccc(-c3nc4cc(C(=O)O)ccc4n3C3CCCC3)cc2)cc1 [Example 44, 2-[4-(4-carboxybenzyloxy)phenyl]-1-cyclopentylbenzimidazole-5-carboxylic acid]
IC50: 950 nM

O=C(O)c1ccc2c(c1)nc(-c1ccc(OCc3ccc(Cl)cc3)cc1)n2C1CCCC1 [Example 45, 2-[4-(4-chlorobenzyloxy)phenyl]-1-cyclopentylbenzimidazole-5-carboxylic acid]
IC50: 400 nM

O=C(O)c1ccc2c(c1)nc(-c1ccc(OCc3ccc(Cl)s3)cc1)n2C1CCCC1 [Example 46, 2-{4-[(2-chloro-5-thienyl)methoxy]phenyl}-1-cyclopentylbenzimidazole-5-carboxylic acid]
IC50: 470 nM

O=C(O)c1ccc2c(c1)nc(-c1ccc(OCc3ccc(C(F)(F)F)cc3)cc1)n2C1CCCC1 [Example 47, 1-cyclopentyl-2-[4-(4-trifluoromethylbenzyloxy)phenyl]benzimidazole-5-carboxylic acid]
IC50: 540 nM

COc1ccc(COc2ccc(-c3nc4cc(C(=O)O)ccc4n3C3CCCC3)cc2)cc1 [Example 48, 1-cyclopentyl-2-[4-(4-methoxybenzyloxy)phenyl]benzimidazole-5-carboxylic acid]
IC50: 440 nM

O=C(O)c1ccc2c(c1)nc(-c1ccc(OCc3ccncc3)cc1)n2C1CCCC1 [Example 49, 1-cyclopentyl-2-[4-(4-pyridylmethoxy)phenyl]benzimidazole-5-carboxylic acid hydrochloride]
IC50: 940 nM

Cc1noc(C)c1COc1ccc(-c2nc3cc(C(=O)O)ccc3n2C2CCCC2)cc1 [Example 51, 1-cyclopentyl-2-{4-[(3,5-dimethyl-4-isoxazolyl)methoxy]phenyl}-benzimidazole-5-carboxylic acid]
IC50: 1000 nM

O=C(O)c1ccc2c(c1)nc(-c1ccc(OCc3ccccc3Cl)cc1)n2C1CCCC1 [Example 54, 2-[4-(2-chlorobenzyloxy)phenyl]-1-cyclopentylbenzimidazole-5-carboxylic acid]
IC50: 560 nM

O=C(O)c1ccc2c(c1)nc(-c1ccc(OCc3cccc(Cl)c3)cc1)n2C1CCCC1 [Example 55, 2-[4-(3-chlorobenzyloxy)phenyl]-1-cyclopentylbenzimidazole-5-carboxylic acid]
IC50: 360 nM

O=C(O)c1ccc2c(c1)nc(-c1ccc(OCc3ccc(Cl)c(Cl)c3)cc1)n2C1CCCC1 [Example 68, 1-cyclopentyl-2-[4-(3,4-dichlorobenzyloxy)phenyl]benzimidazole-5-carboxylic acid]
IC50: 280 nM

O=C(O)c1ccc2c(c1)nc(-c1ccc(OC(c3ccccc3)c3ccccc3)cc1)n2C1CCCC1 [Example 70, 1-cyclopentyl-2-[4-(diphenylmethoxy)phenyl]benzimidazole-5-carboxylic acid]
IC50: 190 nM

O=C(O)c1ccc2c(c1)nc(-c1ccc(OCCc3ccccc3)cc1)n2C1CCCC1 [Example 71, 1-cyclopentyl-2-(4-phenethyloxyphenyl)benzimidazole-5-carboxylic acid]
IC50: 620 nM

O=C(O)c1ccc2c(c1)nc(-c1ccc(CCc3ccccc3)cc1)n2C1CCCCC1 [Example 77, 1-cyclohexyl-2-(4-phenethylphenyl)benzimidazole-5-carboxylic acid]
IC50: 510 nM

O=C(O)c1ccc2c(c1)nc(-c1ccc(OCc3cc(Cl)cc(Cl)c3)cc1)n2C1CCCCC1 [Example 81, 1-cyclohexyl-2-[4-(3,5-dichlorobenzyloxy)phenyl]benzimidazole-5-carboxylic acid]
IC50: 180 nM

O=C(O)c1ccc2c(c1)nc(-c1ccc(OC(c3ccccc3)c3ccccc3)cc1)n2C1CCCCC1 [Example 82, 1-cyclohexyl-2-[4-(diphenylmethoxy)phenyl]benzimidazole-5-carboxylic acid]
IC50: 97 nM

CC(C)(C)c1cc(COc2ccc(-c3nc4cc(C(=O)O)ccc4n3C3CCCCC3)cc2)cc(C(C)(C)C)c1 [Example 83, 1-cyclohexyl-2-[4-(3,5-di-tert-butylbenzyloxy)phenyl]-benzimidazole-5-carboxylic acid]
IC50: 520 nM

O=C(O)c1ccc2c(c1)nc(-c1ccc(OCCc3ccc4ccccc4c3)cc1)n2C1CCCCC1 [Example 85, 1-cyclohexyl-2-{4-[2-(2-naphthyl)ethoxy]phenyl}benzimidazole-5-carboxylic acid]
IC50: 170 nM

O=C(O)c1ccc2c(c1)nc(-c1ccc(OCc3cccc4ccccc34)cc1)n2C1CCCCC1 [Example 86, 1-cyclohexyl-2-[4-(1-naphthyl)methoxyphenyl]benzimidazole-5-carboxylic acid]
IC50: 130 nM

O=C(O)c1ccc2c(c1)nc(-c1ccc(N(Cc3ccccc3)Cc3ccccc3)cc1)n2C1CCCCC1 [Example 87, 1-cyclohexyl-2-[4-(dibenzylamino)phenyl]benzimidazole-5-carboxylic acid]
IC50: 800 nM

O=C(O)c1ccc2c(c1)nc(-c1ccc(OCc3ccccc3-c3ccccc3)cc1)n2C1CCCCC1 [Example 88, 2-[4-(2-biphenylylmethoxy)phenyl]-1-cyclohexylbenzimidazole-5-carboxylic acid]
IC50: 92 nM

O=C(O)c1ccc2c(c1)nc(-c1ccc(OC(Cc3ccccc3)Cc3ccccc3)cc1)n2C1CCCCC1 [Example 90, 1-cyclohexyl-2-[4-(dibenzylmethoxy)phenyl]benzimidazole-5-carboxylic acid]
IC50: 200 nM

O=C(O)c1ccc2c(c1)nc(-c1ccc(OCC(=O)c3ccccc3)cc1)n2C1CCCCC1 [Example 91, 2-(4-benzoylmethoxyphenyl)-1-cyclohexylbenzimidazole-5-carboxylic acid]
IC50: 530 nM

O=C(O)c1ccc2c(c1)nc(-c1ccc(OCCOc3ccccc3)cc1)n2C1CCCCC1 [Example 96, 1-cyclohexyl-2-{4-[2-(phenoxy)ethoxy]phenyl}benzimidazole-5-carboxylic acid]
IC50: 250 nM

O=C(O)c1ccc2c(c1)nc(-c1ccc(OCCCCCc3ccccc3)cc1)n2C1CCCCC1 [Example 98, 1-cyclohexyl-2-[4-(5-phenylpentyloxy)phenyl]benzimidazole-5-carboxylic acid]
IC50: 300 nM

O=C(O)c1ccc2c(c1)nc(-c1cc(OCc3ccccc3)no1)n2C1CCCCC1 [Example 99, 2-(3-benzyloxy-5-isoxazolyl)-1-cyclohexylbenzimidazole-5-carboxylic acid]
IC50: 530 nM

Reference: patent US20040082635A1, “Fused cyclic compounds and medicinal use thereof” (priority 2001, published 2004)
